Test results: patent US20250101025A1, “NOVEL PLK1 DEGRADATION INDUCING COMPOUND” (UPPTHERA, INC., priority 2021, published 2025)
Like-named read-outs stand apart in the source and are kept apart here.

Assays:
Format in all cases: cell-based
[1] = test system: H526 cell line; test: Cell viability assay for NCI-H526 cell line (EZ-Cytox); details: Homo sapiens, NCI-H526, 120 h; H526 cells, 3-fold dilutions 3000 nM to 0.46 nM, 5 days
Description: (1) Culture of NCI-H526 Cell Line
(2) Treatment of Compounds of the Present Invention and Method of Cell Viability Assay
After treating the compound to each well to make the total volume of 200 μL, it was cultured in a CO2 incubator (Thermo Fisher Science, Cat. No. 4111) for 5 days.
The absorbance of the completely cultured sample was measured by setting the wavelength of a plate reader (BMG Labtech, CLARIOstar Plus) to […], and was measured after shaking for 3 minutes in a plate reader before measurement.
In Table 3, Activity represents IC50 value of each Exemplary Compound treatment group to H526 cell line (A: <30 nM, B: <50 nM, C: <100 nM, D: <200 nM, E: <400 nM).

[2] = target: T1, PLK1 (Homo sapiens, UniProt P53350); test: Luciferase assay for PLK1 in HeLa LgBit (Plk1-HiBit KI) cell line; details: compound 300 nM, luminescence after 9 hours
T1 construct: endogenous in cells; host or cells: HeLa LgBit (Plk1-HiBit KI): HeLa stably expressing LgBit, with HiBit knocked in at the endogenous Plk1 locus by CRISPR/Cas9
T1 sequence (P53350 whole entry): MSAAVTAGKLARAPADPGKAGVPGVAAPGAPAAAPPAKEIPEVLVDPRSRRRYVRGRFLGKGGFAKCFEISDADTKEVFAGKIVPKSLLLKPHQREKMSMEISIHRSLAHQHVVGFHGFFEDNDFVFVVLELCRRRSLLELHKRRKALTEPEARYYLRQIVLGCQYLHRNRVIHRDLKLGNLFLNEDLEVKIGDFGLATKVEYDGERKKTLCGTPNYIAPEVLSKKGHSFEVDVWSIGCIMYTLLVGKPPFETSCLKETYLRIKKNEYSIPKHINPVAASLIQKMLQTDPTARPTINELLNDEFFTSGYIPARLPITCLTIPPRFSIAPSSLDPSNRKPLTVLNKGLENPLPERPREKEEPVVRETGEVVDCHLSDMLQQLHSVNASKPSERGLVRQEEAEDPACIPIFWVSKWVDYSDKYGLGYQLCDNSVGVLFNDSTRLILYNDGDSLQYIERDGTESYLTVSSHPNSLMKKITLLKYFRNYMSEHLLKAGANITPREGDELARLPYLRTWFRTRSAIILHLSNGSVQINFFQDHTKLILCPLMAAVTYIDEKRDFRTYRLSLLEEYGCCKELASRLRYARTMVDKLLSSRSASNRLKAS
Description: 2. Luciferase Assay for PLK1
(1) Preparation and Culture of HeLa LgBit (Plk1-HiBit KI) Cell Line
A HeLa cell line in which the LgBit vector was transfected and expressed stably was prepared. Then, after constructing gRNA and donor to express the HiBit amino acid sequence behind the C-terminal of the Plk1 gene, which was inherent in the cell, it was inserted into the cell together with a vector capable of expressing CRISPR/Cas9. Only the cells in which the insertion was completed and knock-in had progressed were selected, sub-cultured and used.
(2) Treatment of Compounds of the Present Invention and Method of Luciferase Assay
In the case of HeLa LgBit (Plk1-HiBit KI), the compounds were treated after being released after thymidine block, and the process was as follows. Thymidine (Sigma-Aldrich Cat. No. T9250-5G) was completely dissolved in DW and used in the experiment. For thymidine block, the products were treated with 2 mM of thymidine and then incubated for 24 hours. For release and chemical treatment, the medium was suctioned and washed with 1×PBS. TrypLE™ was added and incubated in 37° C. CO2 incubator for 5 min. Cells neutralized by adding complete media were counted through a counter. For each well of a 96-well culture plate (SPL), 3.3×10^4 cells and a total medium volume of 150 μL were seeded and incubated in a CO2 incubator.
Each cell line was incubated in a CO2 incubator for 18 hours, and Endurazine was added to each well to make up 4% of the total volume. After adding the compound of the present invention in a 96-well white plate (SPL) to a concentration of 300 nM, the wavelength of the plate reader (BMG Labtech, CLARIOstar Plus) was set to […], and then the luminescence was tracked in real time.
In Table 2, Activity represents the ratio of the luminescence value of each Exemplary Compound treatment group to DMSO treatment group (+++: <0.3, ++<0.6, +<0.7).

[3] = test system: MRC-5 cell line; test: Cell viability assay for MRC-5 cell line (EZ-Cytox cytotoxicity experiment); details: Homo sapiens, MRC5, 120 h, MRC-5 normal cell line, 5 days
Description: 4. Cell Viability Assay for MRC-5 Cell Line
(1) Culture of MRC-5 Cell Line
Passage of cultured cells was maintained within P15.
(2) Treatment of Compounds of the Present Invention
Then, it was cultured in 37° C.
(3) Cytotoxicity Experiment
CO2 incubator for 4 hours.

[4] = highest concentration 10000 nM, N.D. = no cytotoxicity until 10 μM, read-out: Activity: IC50 value to MRC-5 cell line, N.D. cells

Row | SMILES | Activity: ratio of the luminescence value of each Exemplary Compound treatment group to DMSO treatment group [2] | IC50 [1] | IC50 [3, 4] | IC50 ([3]; 3-fold dilutions 10000 nM to 1.52 nM, Exemplary Compounds, numeric values, read-out: Activity: IC50 value (nM) to MRC-5 cell line)
1 | COc1cc(C(=O)NC2CCN(C(=O)CCN3CCN(c4cccc(NC5CCC(=O)NC5=O)c4)CC3)CC2)ccc1Nc1ncc2c(n1)N(C1CCCC1)CC(F)(F)C(=O)N2C (stereo not drawn) [Compound 14, 4-((9-cyclopentyl-7,7-difluoro-5-methyl-6-oxo-6,7,8,9-tetrahydro-5H-pyrimido[4,5-b][1,4]diazepin-2-yl)amino)-N-(1-(3-(4-(3-((2,6-dioxopiperidin-3-yl)amino)phenyl)piperazin-1-yl)propanoyl)piperidin-4-yl)-3-methoxybenzamide] | ++ (++<0.6) | < 0.03 µM | > 10000 nM | 
2 | COc1cc(C(=O)NC2CCN(C(=O)CCN3CCN(c4cccc(N(C)C5CCC(=O)NC5=O)c4)CC3)CC2)ccc1Nc1ncc2c(n1)N(C1CCCC1)CC(F)(F)C(=O)N2C (stereo not drawn) [Compound 15, 4-((9-cyclopentyl-7,7-difluoro-5-methyl-6-oxo-6,7,8,9-tetrahydro-5H-pyrimido[4,5-b][1,4]diazepin-2-yl)amino)-N-(1-(3-(4-(3-((2,6-dioxopiperidin-3-yl)(methyl)amino)phenyl)piperazin-1-yl)propanoyl)piperidin-4-yl)-3-methoxybenzamide] | ++ (++<0.6) | < 0.05 µM | > 10000 nM | 
3 | COc1cc(C(=O)NC2CCN(C(=O)CCN3CCN(c4ccc(N(C)C5CCC(=O)NC5=O)cc4F)CC3)CC2)ccc1Nc1ncc2c(n1)N(C1CCCC1)CC(F)(F)C(=O)N2C (stereo not drawn) [Compound 16, 4-((9-cyclopentyl-7,7-difluoro-5-methyl-6-oxo-6,7,8,9-tetrahydro-5H-pyrimido[4,5-b][1,4]diazepin-2-yl)amino)-N-(1-(3-(4-(4-((2,6-dioxopiperidin-3-yl)(methyl)amino)-2-fluorophenyl)piperazin-1-yl)propanoyl)piperidin-4-yl)-3-methoxybenzamide] | +++ (+++: <0.3) | < 0.03 µM | > 10000 nM | 
4 | COc1cc(C(=O)NC2CCN(CC3CN(c4ccc(NC5CCC(=O)NC5=O)cc4F)C3)CC2)ccc1Nc1ncc2c(n1)N(C(C)C)CC(F)(F)C(=O)N2C (stereo not drawn) [Compound 20, 4-((7,7-difluoro-9-isopropyl-5-methyl-6-oxo-6,7,8,9-tetrahydro-5H-pyrimido[4,5-b][1,4]diazepin-2-yl)amino)-N-(1-((1-(4-((2,6-dioxopiperidin-3-yl)amino)-2-fluorophenyl)azetidin-3-yl)methyl)piperidin-4-yl)-3-methoxybenzamide] | ++ (++<0.6) | < 0.05 µM | > 10000 nM | 
5 | COc1cc(C(=O)NN2CCC(CCN3CCN(c4ccc(NC5CCC(=O)NC5=O)cc4F)CC3)CC2)ccc1Nc1ncc2c(n1)N(C1CCCC1)CC(F)(F)C(=O)N2C (stereo not drawn) [Compound 22, 4-((9-cyclopentyl-7,7-difluoro-5-methyl-6-oxo-6,7,8,9-tetrahydro-5H-pyrimido[4,5-b][1,4]diazepin-2-yl)amino)-N-(4-(2-(4-(4-((2,6-dioxopiperidin-3-yl)amino)-2-fluorophenyl)piperazin-1-yl)ethyl)piperidin-1-yl)-3-methoxybenzamide] | +++ (+++: <0.3) | < 0.03 µM | > 10000 nM | 
6 | COc1cc(C(=O)NN2CCC(CCN3CCN(c4ccc(N(C)C5CCC(=O)NC5=O)cc4F)CC3)CC2)ccc1Nc1ncc2c(n1)N(C1CCCC1)CC(F)(F)C(=O)N2C (stereo not drawn) [Compound 23, 4-((9-cyclopentyl-7,7-difluoro-5-methyl-6-oxo-6,7,8,9-tetrahydro-5H-pyrimido[4,5-b][1,4]diazepin-2-yl)amino)-N-(4-(2-(4-(4-((2,6-dioxopiperidin-3-yl)(methyl)amino)-2-fluorophenyl)piperazin-1-yl)ethyl)piperidin-1-yl)-3-methoxybenzamide] | +++ (+++: <0.3) | < 0.03 µM | > 10000 nM | 
7 | COc1cc(C(=O)NC2CC3(CCN(CC4CCN(c5ccc(NC6CCC(=O)NC6=O)cc5F)CC4)CC3)C2)ccc1Nc1ncc2c(n1)N(C(C)C)CC(F)(F)C(=O)N2C (stereo not drawn) [Compound 24, 4-((7,7-difluoro-9-isopropyl-5-methyl-6-oxo-6,7,8,9-tetrahydro-5H-pyrimido[4,5-b][1,4]diazepin-2-yl)amino)-N-(7-((1-(4-((2,6-dioxopiperidin-3-yl)amino)-2-fluorophenyl)piperidin-4-yl)methyl)-7-azaspiro[3.5]nonan-2-yl)-3-methoxybenzamide] | +++ (+++: <0.3) | < 0.03 µM |  | 23200 nM

Continued, in another order:

Row | Activity: ratio of the luminescence value of each Exemplary Compound treatment group to DMSO treatment group [2] | SMILES | IC50 [1] | IC50 [3, 4] | IC50 ([3]; 3-fold dilutions 10000 nM to 1.52 nM, Exemplary Compounds, numeric values, read-out: Activity: IC50 value (nM) to MRC-5 cell line)
8 | ++ (++<0.6) | COc1cc(C(=O)NN2CCC(CN3CCN(c4ccc(NC5CCC(=O)NC5=O)cc4F)CC3)CC2)ccc1Nc1ncc2c(n1)N(C(C)C)CC(F)(F)C(=O)N2C (stereo not drawn) [Compound 17, 4-((7,7-difluoro-9-isopropyl-5-methyl-6-oxo-6,7,8,9-tetrahydro-5H-pyrimido[4,5-b][1,4]diazepin-2-yl)amino)-N-(4-((4-(4-((2,6-dioxopiperidin-3-yl)amino)-2-fluorophenyl)piperazin-1-yl)methyl)piperidin-1-yl)-3-methoxybenzamide] | < 0.05 µM | > 10000 nM | 
9 | + (+<0.7) | COc1cc(C(=O)NN2CCC(CN3CCN(c4c(F)cc(NC5CCC(=O)NC5=O)cc4F)CC3)CC2)ccc1Nc1ncc2c(n1)N(C(C)C)CC(F)(F)C(=O)N2C (stereo not drawn) [Compound 18, 4-((7,7-difluoro-9-isopropyl-5-methyl-6-oxo-6,7,8,9-tetrahydro-5H-pyrimido[4,5-b][1,4]diazepin-2-yl)amino)-N-(4-((4-(4-((2,6-dioxopiperidin-3-yl)amino)-2,6-difluorophenyl)piperazin-1-yl)methyl)piperidin-1-yl)-3-methoxybenzamide] | < 0.03 µM | > 10000 nM | 
10 | + (+<0.7) | COc1cc(C(=O)NN2CCC(CN3CCN(c4ccc(NC5CCC(=O)NC5=O)cc4Cl)CC3)CC2)ccc1Nc1ncc2c(n1)N(C(C)C)CC(F)(F)C(=O)N2C (stereo not drawn) [Compound 19, N-(4-((4-(2-chloro-4-((2,6-dioxopiperidin-3-yl)amino)phenyl)piperazin-1-yl)methyl)piperidin-1-yl)-4-((7,7-difluoro-9-isopropyl-5-methyl-6-oxo-6,7,8,9-tetrahydro-5H-pyrimido[4,5-b][1,4]diazepin-2-yl)amino)-3-methoxybenzamide] | < 0.05 µM | > 10000 nM | 
11 | ++ (++<0.6) | COc1cc(C(=O)NN2CCC(CN3CCN(c4ccc(NC5CCC(=O)NC5=O)cc4C(F)(F)F)CC3)CC2)ccc1Nc1ncc2c(n1)N(C(C)C)CC(F)(F)C(=O)N2C (stereo not drawn) [Compound 21, 4-((7,7-difluoro-9-isopropyl-5-methyl-6-oxo-6,7,8,9-tetrahydro-5H-pyrimido[4,5-b][1,4]diazepin-2-yl)amino)-N-(4-((4-(4-((2,6-dioxopiperidin-3-yl)amino)-2-(trifluoromethyl)phenyl)piperazin-1-yl)methyl)piperidin-1-yl)-3-methoxybenzamide] | < 0.1 µM | > 10000 nM | 
